Assay [1] relates to human nasal epithelial cells. In words: [3H]inositol phosphate formation in polarized human nasal epithelial cells. It counts as cell-based. How it is done:
(§1) Human nasal epithelial cells were harvested from turbinates using protease XIV (Sigma, St. Louis, Mo.) for 24-48 h at 4° C., as previously described. R. Wu, et al., Am. Rev. Respir. Dis. 132, 311-320 (1985). Cytosolic Ca^2+ and inositol phosphate measurements were made on nasal cell monolayers plated on porous Transwell Col filters (pore diameter 0.45 μm; Costar, Cambridge, Mass.) and maintained in Ham's F12 media supplemented with 10 ng/mL epidermal growth factor, 3.75 ng/mL endothelial cell growth factor, 500 ng/mL hydrocortisone, 5 ng/mL insulin, and 1 mM CaCl2 (Ham's F12+4X medium). Assays were carried out 7 to 10 days after seeding, a time coincident with the development of the maximal transepithelial potential difference according to N. Nakahata & T. K. Harden, Biochem. J. 241, 337-344 (1987).
Confluent human nasal epithelial cells as described in Example 1 were labeled for 18 h in inositol-free DMEM containing 4.5g/L glucose and 5 μCi/mL of [^3H]myo-inositol. These cells were pre-incubated with 10 mM LiCl and challenged with agonists for an additional 10 min. No changes of medium were made subsequent to addition of [^3H]myo-inositol to avoid release of endogenous ATP from stressed cells. E. R. Lazarowski et al., Br. J Pharmacol. 116, 1619-1627 (1995). Incubations were terminated by addition of 5% ice-cold trichloroacetic acid and the resultant [^3H]inositol phosphates were separated on Dowex AG1-X8 columns as described in A. M. Paradiso et al., Nature 377, 643-646 (1995).

The subject of assay [2] is human nasal epithelial cells. Nature of the assay: Cytosolic Ca2+ measurement (Fura-2) in human nasal epithelial cells. The format is cell-based. The procedure: as §1
(§2) Nasal cells grown on Transwell Col filters affixed to O-rings were maintained in F12+4X medium and studied 7-10 days after cell plating as described above. For Ca^2+i measurements, cells were loaded with Fura-2 and mounted in a miniature Ussing chamber over an objective of a microscope (Zeiss) coupled to a microfluorimeter, and cytosolic Ca^2+i levels were quantitated as previously described in Paradiso et al., supra. The fluorescence intensity ratio (excitation 340/380; emission λ 450 nm) was collected from a field of 30-40 nasal cells on monolayers and converted to Ca^2+ as previously described in E. H. Larsen et al, J. Physiol. 424, 109-131 (1990). For simultaneous measurements of Cl^− secretion, the transepithelial potential difference (TEP) was measured by a Voltage-Clamp/Pulse Generator (Model VCC600, Physiologic Instruments, San Diego, Calif.) and recorded on a two-channel recorder (Linsesis Model L200S). To calculate changes in Cl^− secretory current (ΔICl^−), a defined 1 sec current pulse was delivered across the monolayer every 10 sec. The nasal tissue was converted from its native Na^+ absorptive state to a Cl^− secretory state by exposing monolayers to a luminal medium containing 0 Na^+/low Cl^− and to a basolateral medium of Krebs bicarbonate Ringer solution.

In assay [3] the test system is human nasal epithelial cells. In words: Cl- secretion (transepithelial potential difference, Ussing chamber) in human nasal epithelial cells. It counts as cell-based. The procedure: as §1, §2
Assay [4] relates to sheep. In words: Mucociliary clearance in sheep. To be noted: 400 μmole nebulized. The format is in vivo. How it is done: Healthy adult ewes were given ^99mTc-labeled serum albumin (^99mTc-HCA) via a nebulized aerosol. The (^99mTc-HCA)(20 mCi) was administered over 5 minutes through a nasotracheal tube introduced under local anesthesia with 2% lidocaine. After administration of the ^99Tc-HCA, the animals were given the test compound UDP. The test compound was administered by nebulization in a volume of 4 mL over a period of 10-12 min. The test compound was given at a dose of 400 μmole. After the administration of the test compound, the animals were extubated. Clearance of the radiolabeled particles was monitored with a gamma camera. Measurements were made a 0, 5, 10, 15, 20, 25, 30, 35, 40, 45, 50, 55, 60, 75, 90, 105 and 120 minutes. Results of this study (n=7) have shown that the test compound promotes clearance of radiolabeled particles when compared to the saline control. […] The response to UDP was maximal at 60 minutes and was maintained for the second hour of the study. The results of this experiment are illustrated graphically in FIG. 6.

Assay [5] concerns sheep. In words: Tracheal mucus velocity in sheep. It counts as in vivo. As to conditions: 400 μmole nebulized. An excerpt: To measure the effect of UDP on tracheal mucus velocity (TMV), the nasal passages of conscious adult ewes were anesthetized with a 2% lidocaine solution. After local anesthesia was produced, a modified endotracheal tube (7.5 mm) was placed such that the cuff was just below the vocal cords (as verified by fluoroscopy). Inspired air was warmed and humidified. The cuff on the endotracheal tube was inflated only during administration of the test compound to minimize possible impairment of TMV by the cuff. Test compounds were administered by nebulization in a volume of 4 mL over a period of 10-12 min. TMV was measured by fluoroscopy. Ten to twenty radiopaque disks (Teflon/bismuth trioxide; 1 mm diameter; 0.8 mm thick, weighing 1.8 mg) were introduced into the trachea through a modified suction catheter with a puff of compressed air (3-4 L/min). Velocities of the individual disks were recorded on videotape form a portable image intensifier unit. Individual disk velocities were calculated by measuring the distance traveled by each disk during a 1 min observation period. Values reported are the means of the individual disk velocities. A collar was worn by the sheep, which was used as a standard to correct for magnification errors inherent in the fluoroscope.

In assay [6] the target is P2Y2 receptor (Homo sapiens, UniProt P41231). To be noted: UTP-free UDP; cited from earlier work.
Chain of P2Y2 receptor (P41231 whole entry): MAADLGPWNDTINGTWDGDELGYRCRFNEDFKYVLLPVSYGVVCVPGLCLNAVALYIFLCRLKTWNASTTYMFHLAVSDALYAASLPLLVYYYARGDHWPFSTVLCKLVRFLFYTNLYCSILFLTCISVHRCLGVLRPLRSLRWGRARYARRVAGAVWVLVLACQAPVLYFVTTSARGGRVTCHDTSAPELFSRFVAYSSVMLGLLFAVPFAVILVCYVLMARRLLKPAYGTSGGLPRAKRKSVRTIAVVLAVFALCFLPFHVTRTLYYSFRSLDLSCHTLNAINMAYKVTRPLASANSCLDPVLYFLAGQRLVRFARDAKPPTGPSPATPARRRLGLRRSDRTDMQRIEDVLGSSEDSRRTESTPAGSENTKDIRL
Where [7] appears, read: subsequent 3 μM then 10 μM UDP, mucosal (desensitization).

SMILES strings stand for the structures.

Here are results for one molecule from US6451288B1, “Method of treating lung diseases with uridine 5′-diphosphate and analogs thereof” (The University of North Carolina at Chapel Hill, priority 1997, dated 2002).

For orientation: EC50 means the concentration needed to bring the measured effect to its halfway point. Consider `O=c1ccn([C@@H]2O[C@H](COP(=O)(O)OP(=O)(O)O)[C@@H](O)[C@H]2O)c(=O)[nH]1` [UDP, uridine 5′-diphosphate], for which, in assay [1] (100 μM, mucosal), the “Accumulation of [3H]inositol phosphates, mucosal” value is “marked accumulation”. Further, the “Effect on inositol phosphate accumulation, serosal bath” value in assay [1] (100 μM, serosal) is “negligible effect”. The EC50 in assay [1] (Homo sapiens, Epithelial cell, 10 min, added to mucosal medium, 10 min, read-out: EC50 for stimulating inositol phosphate formation) was 190 ± 27 nM. Also, the “Maximal inositol phosphate effect relative to response with mucosal UTP” value in assay [1] (mucosal, 100 μM) was “approximately one half”. In addition, the “ΔCa2+ (mobilization of intracellular calcium)” value in assay [2] (3 μM, mucosal bath, first addition) was found to be 66 ± 12 nM. The “Maximal calcium mobilization effect relative to response with mucosal UTP” value in assay [2] (mucosal, 100 μM) is “approximately one half”. In addition, the “ΔCa2+ after subsequent addition” value in assay [2] (setting [7]) was 0. Also, in assay [3] (3 μM, mucosal), the “ΔICl-, mucosal” value is 16±3 μA·cm^2. In addition, in assay [3] (3 μM, mucosal bath, first addition, n=8), the “Cl- secretory response (ΔICl-)” value is on record as −16.3±3 μA/cm^2. In addition, in assay [3] (3 μM, serosal), the “ΔICl-, serosal” value amounted to 0±0 μA·cm^2. Also, the “Magnitude of Cl- secretion response relative to mucosal UTP response” value in assay [3] (mucosal) is “approximately one half”. In assay [3] (setting [7]), the “ΔICl- after subsequent addition” value worked out at 0. Besides, in assay [4], the “Time of maximal response (clearance)” value worked out at 60 min. Also, the “Maximal effect, clearance of radiolabeled particles” value in assay [4] (n=7) was 33.6±1.6 % clearance. Moreover, in assay [5], the “Time of maximal effect after administration (TMV)” value worked out at 15 min. In assay [6], the “Activity at the P2Y2 receptor” value is “essentially inactive”.
